For data set [1], the system named is Hepatotoxicity. Briefly: Literature-mined compound from Fourches et al multi-species drug-induced liver injury (DILI) dataset, effect in rodents. Particulars: rodentia.
Data set [2] has as its system Hepatotoxicity. As to the kind of experiment: Literature-mined compound from Fourches et al multi-species drug-induced liver injury (DILI) dataset, effect in non-rodents.
Data set [3] concerns Hepatotoxicity. Briefly: Literature-mined compound from Fourches et al multi-species drug-induced liver injury (DILI) dataset, effect in humans. Conditions: human.

Our source for the Hepatotoxicity values is ChEMBL document CHEMBL1697731, “Cheminformatics analysis of assertions mined from literature that describe drug-induced liver injury in different species” (Chem Res Toxicol, 2010).

In the case of `O=C1NC(=O)C(c2ccccc2)(c2ccccc2)N1` [PHENYTOIN], the Hepatotoxicity result in data set [1] (Liver), in data set [2] (Liver) and in data set [3] (Liver) was “drug-induced liver injury reported” in each case.
For `CNC(=O)Oc1ccc2c(c1)[C@]1(C)CCN(C)[C@@H]1N2C` [PHYSOSTIGMINE], the Hepatotoxicity result was “drug-induced liver injury reported” in data set [1], “no drug-induced liver injury reported” in data set [2] and “no drug-induced liver injury reported” in data set [3].
As to `CC[C@@H]1C(=O)OC[C@@H]1Cc1cncn1C` [PILOCARPINE], the Hepatotoxicity entry in data set [1] was “drug-induced liver injury reported”; in data set [2], “no drug-induced liver injury reported”; in data set [3], “no drug-induced liver injury reported”.
`N=C(N)NN` [PIMAGEDINE]: the Hepatotoxicity result in data set [1] is reported as “drug-induced liver injury reported”; in data set [2], “no drug-induced liver injury reported”; in data set [3], “no drug-induced liver injury reported”.
Consider `O=c1[nH]c2ccccc2n1C1CCN(CCCC(c2ccc(F)cc2)c2ccc(F)cc2)CC1` [PIMOZIDE], for which the values for the Hepatotoxicity entry in data set [1], in data set [2] and in data set [3] were “no drug-induced liver injury reported”, “no drug-induced liver injury reported” and “drug-induced liver injury reported”, respectively.
For the molecule `CC(N/C(=N\C#N)Nc1ccncc1)C(C)(C)C` (centres undefined) [PINACIDIL ANHYDROUS], the figures for the Hepatotoxicity result in data set [1], in data set [2] and in data set [3] were “drug-induced liver injury reported”, “no drug-induced liver injury reported” and “drug-induced liver injury reported”, respectively.
On to `CCn1cc(C(=O)O)c(=O)c2cnc(N3CCNCC3)nc21` [PIPEMIDIC ACID], for which the results for the Hepatotoxicity result in data set [1], in data set [2] and in data set [3] were “no drug-induced liver injury reported”, “no drug-induced liver injury reported” and “drug-induced liver injury reported”, respectively.
As for `CCN1CCN(C(=O)N[C@@H](C(=O)N[C@@H]2C(=O)N3[C@@H]2SC(C)(C)[C@@H]3C(=O)O)c2ccccc2)C(=O)C1=O` [PIPERACILLIN], the Hepatotoxicity entry in data set [1] is on record as “drug-induced liver injury reported”; in data set [2], “drug-induced liver injury reported”; in data set [3] it was “no drug-induced liver injury reported”.
For `C1CNCCN1` [PIPERAZINE], the Hepatotoxicity result in data set [1] (Liver) is recorded as “drug-induced liver injury reported”; in data set [2] (Liver) it was “no drug-induced liver injury reported”; in data set [3] (Liver), “no drug-induced liver injury reported”.
On to `CCCCOCCOCCOCc1cc2c(cc1CCC)OCO2` [PIPERONYL BUTOXIDE], for which the Hepatotoxicity result is on record as “drug-induced liver injury reported” in data set [1] (Liver), “no drug-induced liver injury reported” in data set [2] (Liver) and “no drug-induced liver injury reported” in data set [3] (Liver).
Turning to `Cc1ccc(=O)n(-c2ccccc2)c1` [PIRFENIDONE], the Hepatotoxicity result in data set [1] is recorded as “drug-induced liver injury reported”; in data set [2], “drug-induced liver injury reported”; in data set [3], “no drug-induced liver injury reported”.
`COc1ccc(OC)c(Cc2cnc3nc(N)nc(N)c3c2C)c1` [PIRITREXIM]: the Hepatotoxicity entry is given as “no drug-induced liver injury reported” in data set [1], “no drug-induced liver injury reported” in data set [2] and “drug-induced liver injury reported” in data set [3].
As for `CN1C(C(=O)Nc2ccccn2)=C(O)c2ccccc2S1(=O)=O` [PIROXICAM], the results for the Hepatotoxicity entry in data set [1], in data set [2] and in data set [3] were “drug-induced liver injury reported”, “no drug-induced liver injury reported” and “drug-induced liver injury reported”, respectively.
On to `CC(C(=O)O)c1ccc(N2CC=CC2)c(Cl)c1` (centres undefined) [PIRPROFEN], for which the Hepatotoxicity result is given as “drug-induced liver injury reported” in data set [1], “no drug-induced liver injury reported” in data set [2] and “drug-induced liver injury reported” in data set [3].
Regarding `O=C(O)C[C@H](O)C[C@H](O)/C=C/c1c(C2CC2)nc2ccccc2c1-c1ccc(F)cc1` [PITAVASTATIN], the figures for the Hepatotoxicity entry in data set [1], in data set [2] and in data set [3] were “drug-induced liver injury reported”, “no drug-induced liver injury reported” and “drug-induced liver injury reported”, respectively.
As to `CN1CCC(=C2c3ccccc3CCc3sccc32)CC1` [PIZOTYLINE], the values for the Hepatotoxicity entry in data set [1], in data set [2] and in data set [3] were “no drug-induced liver injury reported”, “no drug-induced liver injury reported” and “drug-induced liver injury reported”, respectively.
Take `CO[C@H](C(=O)[C@@H](O)[C@@H](C)O)[C@@H]1Cc2cc3cc(O[C@H]4C[C@@H](O[C@H]5C[C@@H](O)[C@H](O)[C@@H](C)O5)[C@H](O)[C@@H](C)O4)c(C)c(O)c3c(O)c2C(=O)[C@H]1O[C@H]1C[C@@H](O[C@H]2C[C@@H](O[C@H]3C[C@](C)(O)[C@H](O)[C@@H](C)O3)[C@@H](O)[C@@H](C)O2)[C@H](O)[C@@H](C)O1` [PLICAMYCIN]: the Hepatotoxicity entry is on record as “drug-induced liver injury reported” in data set [1], “no drug-induced liver injury reported” in data set [2] and “drug-induced liver injury reported” in data set [3].
With `COc1cc([C@@H]2c3cc4c(cc3[C@H](O)[C@H]3COC(=O)[C@H]23)OCO4)cc(OC)c1OC` [PODOFILOX], the Hepatotoxicity entry was “drug-induced liver injury reported” in data set [1], “no drug-induced liver injury reported” in data set [2] and “no drug-induced liver injury reported” in data set [3].
`C[C@]12CC[C@H](O)CC1=CC[C@@H]1[C@@H]2CC[C@]2(C)C(=O)CC[C@@H]12` [PRASTERONE]: the Hepatotoxicity result in data set [1] was “drug-induced liver injury reported”; in data set [2], “no drug-induced liver injury reported”; in data set [3], “drug-induced liver injury reported”.
`CC[C@H](C)C(=O)O[C@H]1C[C@H](O)C=C2C=C[C@H](C)[C@H](CC[C@@H](O)C[C@@H](O)CC(=O)O)[C@H]21` [PRAVASTATIN]: the Hepatotoxicity result in data set [1], in data set [2] and in data set [3] was “drug-induced liver injury reported” throughout.
Take `COc1cc2nc(N3CCN(C(=O)c4ccco4)CC3)nc(N)c2cc1OC` [PRAZOSIN]: the Hepatotoxicity entry was “drug-induced liver injury reported” in data set [1], “no drug-induced liver injury reported” in data set [2] and “drug-induced liver injury reported” in data set [3].
Take `C[C@]12C=CC(=O)C=C1CC[C@@H]1[C@@H]2[C@@H](O)C[C@@]2(C)[C@H]1CC[C@]2(O)C(=O)CO` [PREDNISOLONE]: the results for the Hepatotoxicity result in data set [1], in data set [2] and in data set [3] were “drug-induced liver injury reported”, “no drug-induced liver injury reported” and “drug-induced liver injury reported”, respectively.
On to `C[C@]12C=CC(=O)C=C1CC[C@@H]1[C@@H]2C(=O)C[C@@]2(C)[C@H]1CC[C@]2(O)C(=O)CO` [PREDNISONE], for which the values for the Hepatotoxicity entry in data set [1], in data set [2] and in data set [3] were “no drug-induced liver injury reported”, “drug-induced liver injury reported” and “drug-induced liver injury reported”, respectively.
Turning to `COc1cc(NC(C)CCCN)c2ncccc2c1` (centres undefined) [PRIMAQUINE], the Hepatotoxicity result in data set [1] is reported as “drug-induced liver injury reported”; in data set [2], “no drug-induced liver injury reported”; in data set [3], “drug-induced liver injury reported”.
On to `CCC1(c2ccccc2)C(=O)NCNC1=O` [PRIMIDONE], for which the results for the Hepatotoxicity result in data set [1], in data set [2] and in data set [3] were “no drug-induced liver injury reported”, “drug-induced liver injury reported” and “drug-induced liver injury reported”, respectively.
For the molecule `CCCN(CCC)S(=O)(=O)c1ccc(C(=O)O)cc1` [PROBENECID], the results for the Hepatotoxicity result in data set [1], in data set [2] and in data set [3] were “drug-induced liver injury reported”, “no drug-induced liver injury reported” and “drug-induced liver injury reported”, respectively.
As to `CC(C)(Sc1cc(C(C)(C)C)c(O)c(C(C)(C)C)c1)Sc1cc(C(C)(C)C)c(O)c(C(C)(C)C)c1` [PROBUCOL], the Hepatotoxicity result in data set [1], in data set [2] and in data set [3] was “drug-induced liver injury reported” throughout.
As for `CCN(CC)CCNC(=O)c1ccc(N)cc1` [PROCAINAMIDE], the results for the Hepatotoxicity entry in data set [1], in data set [2] and in data set [3] were “drug-induced liver injury reported”, “no drug-induced liver injury reported” and “drug-induced liver injury reported”, respectively.
For the molecule `CNNCc1ccc(C(=O)NC(C)C)cc1` [PROCARBAZINE], the Hepatotoxicity result in data set [1] is listed as “drug-induced liver injury reported”; in data set [2], “no drug-induced liver injury reported”; in data set [3], “no drug-induced liver injury reported”.
Consider `CN1CCN(CCCN2c3ccccc3Sc3ccc(Cl)cc32)CC1` [PROCHLORPERAZINE], for which the Hepatotoxicity result in data set [1] is “no drug-induced liver injury reported”; in data set [2], “no drug-induced liver injury reported”; in data set [3] it was “drug-induced liver injury reported”.
Consider `[H]/N=C(\N/C(=N/[H])Nc1ccc(Cl)cc1)NC(C)C` [PROGUANIL], for which the Hepatotoxicity entry in data set [1] is “no drug-induced liver injury reported”; in data set [2] it was “no drug-induced liver injury reported”; in data set [3], “drug-induced liver injury reported”.
For `CC(CN1c2ccccc2Sc2ccccc21)N(C)C` (centres undefined) [PROMETHAZINE], the Hepatotoxicity result in data set [1] is “drug-induced liver injury reported”; in data set [2], “drug-induced liver injury reported”; in data set [3], “no drug-induced liver injury reported”.
For the molecule `CC(C)c1cccc(C(C)C)c1O` [PROPOFOL], the Hepatotoxicity result in data set [1] (Liver), in data set [2] (Liver) and in data set [3] (Liver) was “drug-induced liver injury reported” throughout.
